For the series, the system named is CCRIS mutagenicity, Ames/micronucleus/aberration tests. Put plainly: CCRIS mutagenicity studies.
Where [1] appears, read: Test System: AMES SALMONELLA TYPHIMURIUM, Strain/Indicator: TA100, Metabolic Activation: NONE, Method: STANDARD PLATE.

The source made the active and inactive calls. No rule for the calls is given here.

Regarding `O=[N+]([O-])c1cc2c3c(c1)CCc1c4c(cc(c1-3)CC2)CCCC4`, the mutagenic call (Test System: AMES SALMONELLA TYPHIMURIUM, Strain/Indicator: TA98(1,8-DNP6), Metabolic Activation: NONE) was “active; positive”; the mutagenic call (Test System: AMES SALMONELLA TYPHIMURIUM, Strain/Indicator: TA98(1,8-DNP6), Metabolic Activation: RAT, LIVER, S-9, AROCLOR 1254) is “active; positive”; the mutagenic call (Test System: AMES SALMONELLA TYPHIMURIUM, Strain/Indicator: TA98(NR), Metabolic Activation: NONE) is “active; positive”; the mutagenic call (Test System: AMES SALMONELLA TYPHIMURIUM, Strain/Indicator: TA98(NR), Metabolic Activation: RAT, LIVER, S-9, AROCLOR 1254) is “active; positive”; the mutagenic call (Test System: AMES SALMONELLA TYPHIMURIUM, Strain/Indicator: TA98, Metabolic Activation: NONE) was “active; positive”; the mutagenic call (Test System: AMES SALMONELLA TYPHIMURIUM, Strain/Indicator: TA98, Metabolic Activation: RAT, LIVER, S-9, AROCLOR 1254) was “active; positive”. Moreover, the mutagenic call runs as follows: (Test System: AMES SALMONELLA TYPHIMURIUM, Strain/Indicator: TA100(NR), Metabolic Activation: NONE) “active; positive”; (Test System: AMES SALMONELLA TYPHIMURIUM, Strain/Indicator: TA100(NR), Metabolic Activation: RAT, LIVER, S-9, AROCLOR 1254) “active; positive”; (Test System: AMES SALMONELLA TYPHIMURIUM, Strain/Indicator: TA100, Metabolic Activation: NONE) “active; positive”; (Test System: AMES SALMONELLA TYPHIMURIUM, Strain/Indicator: TA100, Metabolic Activation: RAT, LIVER, S-9, AROCLOR 1254) “active; positive”; (Test System: AMES SALMONELLA TYPHIMURIUM, Strain/Indicator: TA104, Metabolic Activation: NONE) “active; positive”; (Test System: AMES SALMONELLA TYPHIMURIUM, Strain/Indicator: TA104, Metabolic Activation: RAT, LIVER, S-9, AROCLOR 1254) “active; positive”.

Take `CC(C(=O)O)c1cccc(C(=O)c2ccccc2)c1` (stereo unspecified): the mutagenic call by setting is: (Test System: AMES SALMONELLA TYPHIMURIUM, Strain/Indicator: TA97A, Metabolic Activation: NONE, Method: STANDARD PLATE) “inactive; negative”; (Test System: AMES SALMONELLA TYPHIMURIUM, Strain/Indicator: TA97A, Metabolic Activation: RAT, LIVER, S-9, PHENOBARBITAL, Method: STANDARD PLATE) “inactive; negative”; under setting [1], “inactive; negative”; (Test System: AMES SALMONELLA TYPHIMURIUM, Strain/Indicator: TA100, Metabolic Activation: RAT, LIVER, S-9, PHENOBARBITAL, Method: STANDARD PLATE) “inactive; negative”; (Test System: AMES SALMONELLA TYPHIMURIUM, Strain/Indicator: TA102, Metabolic Activation: NONE, Method: STANDARD PLATE) “inactive; negative”; (Test System: AMES SALMONELLA TYPHIMURIUM, Strain/Indicator: TA102, Metabolic Activation: RAT, LIVER, S-9, PHENOBARBITAL, Method: STANDARD PLATE) “inactive; negative”.

On to `COS(=O)(=O)c1ccccc1`, for which the mutagenic call (End Point: IN VITRO MICRONUCLEUS, Test System: MOUSE LYMPHOMA L5178Y CELLS, Metabolic Activation: NONE) was “active; positive”; the mutagenic call (End Point: IN VITRO MICRONUCLEUS, Test System: MOUSE LYMPHOMA L5178Y CELLS, Metabolic Activation: RAT, LIVER, S-9) was “active; positive”; the mutagenic call (End Point: In vitro micronucleus, Test System: Chinese Hamster Ovary (CHO-WBL) cells, Metabolic Activation: None) is “active; positive (p<0.05)”; the mutagenic call under setting [1] was “inactive; negative; response reported as weakly positive”; the mutagenic call (Test System: AMES SALMONELLA TYPHIMURIUM, Strain/Indicator: TA100, Metabolic Activation: RAT, LIVER, S-9, Method: STANDARD PLATE) was “active; positive”.

With `C=CCCC1CO1` (stereo unspecified), the mutagenic call is “active; positive” under setting [1] and “active; positive” (Test System: AMES SALMONELLA TYPHIMURIUM, Strain/Indicator: TA1535, Metabolic Activation: NONE, Method: STANDARD PLATE).

In the case of `Cc1cc(-c2cc(C)c(N)c(C)c2)cc(C)c1N`, the mutagenic call runs as follows: (Test System: AMES SALMONELLA TYPHIMURIUM, Strain/Indicator: TA97, Metabolic Activation: HAMSTER, LIVER, S-9, AROCLOR 1254 (10%), Method: PREINCUBATION) “inactive; negative”; (Test System: AMES SALMONELLA TYPHIMURIUM, Strain/Indicator: TA97, Metabolic Activation: HAMSTER, LIVER, S-9, AROCLOR 1254 (30%), Method: PREINCUBATION) “inactive; negative”; (Test System: AMES SALMONELLA TYPHIMURIUM, Strain/Indicator: TA97, Metabolic Activation: NONE, Method: PREINCUBATION) “inactive; negative”; (Test System: AMES SALMONELLA TYPHIMURIUM, Strain/Indicator: TA97, Metabolic Activation: RAT, LIVER, S-9, AROCLOR 1254 (10%), Method: PREINCUBATION) “inactive; negative”; (Test System: AMES SALMONELLA TYPHIMURIUM, Strain/Indicator: TA97, Metabolic Activation: RAT, LIVER, S-9, AROCLOR 1254 (30%), Method: PREINCUBATION) “inactive; negative”; (Test System: AMES SALMONELLA TYPHIMURIUM, Strain/Indicator: TA98, Metabolic Activation: HAMSTER, LIVER, S-9, AROCLOR 1254 (10%), Method: PREINCUBATION) “inactive; negative”. For the same compound, the mutagenic call is “inactive; negative” (Test System: AMES SALMONELLA TYPHIMURIUM, Strain/Indicator: TA98, Metabolic Activation: HAMSTER, LIVER, S-9, AROCLOR 1254 (30%), Method: PREINCUBATION); “inactive; negative” (Test System: AMES SALMONELLA TYPHIMURIUM, Strain/Indicator: TA98, Metabolic Activation: NONE, Method: PREINCUBATION); “inactive; negative” (Test System: AMES SALMONELLA TYPHIMURIUM, Strain/Indicator: TA98, Metabolic Activation: RAT LIVER S-9, AROCLOR 1254, Method: PREINCUBATION); “inactive; negative” (Test System: AMES SALMONELLA TYPHIMURIUM, Strain/Indicator: TA98, Metabolic Activation: RAT, LIVER, S-9, AROCLOR 1254 (10%), Method: PREINCUBATION); “inactive; negative” (Test System: AMES SALMONELLA TYPHIMURIUM, Strain/Indicator: TA98, Metabolic Activation: RAT, LIVER, S-9, AROCLOR 1254 (30%), Method: PREINCUBATION); “inactive; negative” (Test System: AMES SALMONELLA TYPHIMURIUM, Strain/Indicator: TA100, Metabolic Activation: HAMSTER, LIVER, S-9, AROCLOR 1254 (10%), Method: PREINCUBATION). Moreover, the mutagenic call by setting is: (Test System: AMES SALMONELLA TYPHIMURIUM, Strain/Indicator: TA100, Metabolic Activation: HAMSTER, LIVER, S-9, AROCLOR 1254 (30%), Method: PREINCUBATION) “inactive; negative”; (Test System: AMES SALMONELLA TYPHIMURIUM, Strain/Indicator: TA100, Metabolic Activation: NONE, Method: PREINCUBATION) “inactive; negative”; (Test System: AMES SALMONELLA TYPHIMURIUM, Strain/Indicator: TA100, Metabolic Activation: RAT LIVER S-9, AROCLOR 1254, Method: PREINCUBATION) “inactive; negative”; (Test System: AMES SALMONELLA TYPHIMURIUM, Strain/Indicator: TA100, Metabolic Activation: RAT, LIVER, S-9, AROCLOR 1254 (10%), Method: PREINCUBATION) “inactive; negative”; (Test System: AMES SALMONELLA TYPHIMURIUM, Strain/Indicator: TA100, Metabolic Activation: RAT, LIVER, S-9, AROCLOR 1254 (30%), Method: PREINCUBATION) “inactive; negative”; (Test System: AMES SALMONELLA TYPHIMURIUM, Strain/Indicator: TA1535, Metabolic Activation: HAMSTER, LIVER, S-9, AROCLOR 1254 (10%), Method: PREINCUBATION) “inactive; negative”. Moreover, the mutagenic call runs as follows: (Test System: AMES SALMONELLA TYPHIMURIUM, Strain/Indicator: TA1535, Metabolic Activation: HAMSTER, LIVER, S-9, AROCLOR 1254 (30%), Method: PREINCUBATION) “inactive; negative”; (Test System: AMES SALMONELLA TYPHIMURIUM, Strain/Indicator: TA1535, Metabolic Activation: NONE, Method: PREINCUBATION) “inactive; negative”; (Test System: AMES SALMONELLA TYPHIMURIUM, Strain/Indicator: TA1535, Metabolic Activation: RAT, LIVER, S-9, AROCLOR 1254 (10%), Method: PREINCUBATION) “inactive; negative”; (Test System: AMES SALMONELLA TYPHIMURIUM, Strain/Indicator: TA1535, Metabolic Activation: RAT, LIVER, S-9, AROCLOR 1254 (30%), Method: PREINCUBATION) “inactive; negative”; (Test System: Ames Salmonella typhimurium, Strain/Indicator: TA102, Metabolic Activation: None, Method: Preincubation) “inactive; negative”; (Test System: Ames Salmonella typhimurium, Strain/Indicator: TA102, Metabolic Activation: Rat, liver, S-9, Aroclor 1254, Method: Preincubation) “inactive; negative”. Also, the mutagenic call (Test System: MOUSE LYMPHOMA, Strain/Indicator: L5178Y (TK+/TK-), Metabolic Activation: RAT, LIVER, S-9, AROCLOR 1254, Method: SUSPENSION/PLATE) was “inactive; negative” and the mutagenic call (Test System: MOUSE LYMPHOMA, Strain/Indicator: L5178Y (TK+/TK-), Metabolic Activation: RAT, LIVER, S-9, Method: SUSPENSION/PLATE) was “inactive; negative”.
